Source: ChEMBL document CHEMBL1201861, “Genomics of Drug Sensitity in Cancer screening data, Wellcome Trust Sanger Institute”

What was measured:
Assay in all cases: cells
IST-MES1 = assay type: functional, cell-based, Homo sapiens; conditions: Homo sapiens, IST-MES1;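 note: growth inhibition of IST-MES1 cells, measured with a cell viability assay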
Description: SANGER: Inhibition of human IST-MES1 cell growth in a cell viability assay.

BEN = assay type: functional, cell-based, Homo sapiens; conditions: Homo sapiens, BEN;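 note: growth inhibition of the BEN cell line, read out with a cell viability assay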
Description: SANGER: Inhibition of human BEN cell growth in a cell viability assay.

CAL-51 = assay type: functional, cell-based, Homo sapiens; conditions: Homo sapiens, CAL-51;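 note: human CAL-51 cell line, growth inhibition read out via a cell viability assay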
Description: SANGER: Inhibition of human CAL-51 cell growth in a cell viability assay.

LS-513 = assay type: functional, cell-based, Homo sapiens; conditions: Homo sapiens, LS-513
Description: SANGER: Inhibition of human LS-513 cell growth in a cell viability assay.

UMUC3 = assay type: functional, cell-based, Homo sapiens; conditions: Homo sapiens, UMUC3;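 note: growth inhibition of human UM-UC-3 cells, read out with a cell viability assay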
Description: SANGER: Inhibition of human UM-UC-3 cell growth in a cell viability assay.

KE-37 = assay type: functional, cell-based; conditions: Homo sapiens;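 note: growth inhibition of KE-37 cells, read out with a cell viability assay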
SW837 = assay type: functional, cell-based, Homo sapiens; conditions: Homo sapiens, SW837;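 note: growth inhibition of SW837 cells, determined with a cell viability assay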
Description: SANGER: Inhibition of human SW837 cell growth in a cell viability assay.

ESS-1 = assay type: functional, cell-based, Homo sapiens; conditions: Homo sapiens, ESS-1;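 note: growth inhibition of human ESS-1 cells, read out by a cell viability assay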
Description: SANGER: Inhibition of human ESS-1 cell growth in a cell viability assay.

KM-H2 = assay type: functional, cell-based; conditions: Homo sapiens;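 note: growth inhibition of KM-H2 cells, read out by a cell viability assay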
Description: SANGER: Inhibition of human KM-H2 cell growth in a cell viability assay.

SW1417 = assay type: functional, cell-based, Homo sapiens; conditions: Homo sapiens, SW1417;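 note: growth inhibition of human SW1417 cells, read out with a cell viability assay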
Description: SANGER: Inhibition of human SW1417 cell growth in a cell viability assay.

NCI-H441 = assay type: functional, cell-based; conditions: Homo sapiens;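 note: growth inhibition of NCI-H441 cells, read out with a cell viability assay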
Description: SANGER: Inhibition of human NCI-H441 cell growth in a cell viability assay.

YKG-1 = assay type: functional, cell-based, Homo sapiens; conditions: Homo sapiens, YKG-1;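 note: cell growth inhibition, read out with a viability assay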
Description: SANGER: Inhibition of human YKG-1 cell growth in a cell viability assay.

HT1197 = assay type: functional, cell-based, Homo sapiens, HT-1197; conditions: Homo sapiens, HT1197
Description: SANGER: Inhibition of human HT-1197 cell growth in a cell viability assay.

NMC-G1 = assay type: functional, cell-based, Homo sapiens; conditions: Homo sapiens, NMC-G1;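 note: growth inhibition of the NMC-G1 cell line, measured with a cell viability read-out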
Description: SANGER: Inhibition of human NMC-G1 cell growth in a cell viability assay.

DK-MG = assay type: functional, cell-based, Homo sapiens; conditions: Homo sapiens, DK-MG;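 note: growth inhibition of DK-MG cells, read out with a cell viability assay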
Description: SANGER: Inhibition of human DK-MG cell growth in a cell viability assay.

TE-8 = assay type: functional, cell-based, Homo sapiens; conditions: Homo sapiens, TE-8;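 note: growth inhibition of TE-8 cells, measured with a cell viability readout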
Description: SANGER: Inhibition of human TE-8 cell growth in a cell viability assay.

AM-38 = assay type: functional, cell-based, Homo sapiens; conditions: Homo sapiens, AM-38;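 note: growth inhibition of AM-38 cells of human origin, read out by a cell viability assay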
Description: SANGER: Inhibition of human AM-38 cell growth in a cell viability assay.

RKO = assay type: functional, cell-based, Homo sapiens; conditions: Homo sapiens, RKO;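 note: growth inhibition of human RKO cells, read out with a cell viability assay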
Description: SANGER: Inhibition of human RKO cell growth in a cell viability assay.

NB17 = assay type: functional, cell-based; conditions: Homo sapiens;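 note: growth inhibition of NB17 cells, read out with a cell viability assay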
Description: SANGER: Inhibition of human NB17 cell growth in a cell viability assay.

ES1 = assay type: functional, cell-based, Homo sapiens; conditions: Homo sapiens, ES1
Description: SANGER: Inhibition of human ES1 cell growth in a cell viability assay.

PSN1 = assay type: functional, cell-based, Homo sapiens; conditions: Homo sapiens, PSN1;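 note: suppression of growth of human PSN1 cells, read out by a cell viability assay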
Description: SANGER: Inhibition of human PSN1 cell growth in a cell viability assay.

MDA-MB-453 = assay type: functional, cell-based, Homo sapiens; conditions: Homo sapiens, MDA-MB-453
OVCAR-3 = assay type: functional, cell-based, Homo sapiens; conditions: Homo sapiens, OVCAR-3;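 note: growth inhibition of human OVCAR-3 cells, determined by a cell viability assay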
Description: SANGER: Inhibition of human OVCAR-3 cell growth in a cell viability assay.

SF-268 = assay type: functional, cell-based, Homo sapiens; conditions: Homo sapiens, SF-268;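 note: growth inhibition of SF-268 cells determined with a cell viability assay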
Description: SANGER: Inhibition of human SF268 cell growth in a cell viability assay.

U-87 MG = assay type: functional, cell-based, U-87MG ATCC; conditions: Homo sapiens;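 note: growth inhibition of the cells measured with a viability assay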
Description: SANGER: Inhibition of human U-87-MG cell growth in a cell viability assay.

KYSE-140 = assay type: functional, cell-based, Homo sapiens; conditions: Homo sapiens, KYSE-140;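 note: cell viability assay measuring growth inhibition in human KYSE-140 cells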
Description: SANGER: Inhibition of human KYSE-140 cell growth in a cell viability assay.

JAR = assay type: functional, cell-based, Homo sapiens; conditions: Homo sapiens, JAR;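 note: growth inhibition of human JAR cells determined with a cell viability assay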
Description: SANGER: Inhibition of human JAR cell growth in a cell viability assay.

P30-OHK = assay type: functional, cell-based; conditions: Homo sapiens;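 note: growth inhibition of the P30-OHK cell line, read out with a cell viability assay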
Description: SANGER: Inhibition of human P30-OHK cell growth in a cell viability assay.

SW982 = assay type: functional, cell-based; conditions: Homo sapiens;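 note: growth inhibition of SW982 cells, read out with a cell viability assay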
Description: SANGER: Inhibition of human SW982 cell growth in a cell viability assay.

HCE-T = assay type: functional, cell-based, Homo sapiens; conditions: Homo sapiens, HCE-T;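 note: cell viability assay read-out, reporting inhibition of HCE-T cell growth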
Description: SANGER: Inhibition of human HCE-T cell growth in a cell viability assay.

MSTO-211H = assay type: functional, cell-based, Homo sapiens; conditions: Homo sapiens, MSTO-211H
Description: SANGER: Inhibition of human MSTO-211H cell growth in a cell viability assay.

Calu-3 = assay type: functional, cell-based, Homo sapiens; conditions: Homo sapiens, Calu-3;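 note: growth inhibition of human Calu-3 cells, determined with a cell viability assay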
Description: SANGER: Inhibition of human Calu-3 cell growth in a cell viability assay.

U-251 = assay type: functional, cell-based, Homo sapiens; conditions: Homo sapiens, U-251;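 note: growth inhibition of human U-251 cells, read out through a cell viability assay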
Description: SANGER: Inhibition of human U251 cell growth in a cell viability assay.

NCI-H209 = assay type: functional, cell-based; conditions: Homo sapiens;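 note: growth inhibition of human NCI-H209 cells, measured by a cell viability assay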
Description: SANGER: Inhibition of human NCI-H209 cell growth in a cell viability assay.

SF-295 = assay type: functional, cell-based, Homo sapiens; conditions: Homo sapiens, SF-295; read-out: IC50;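 note: growth inhibition of SF-295 cells, read out with a cell viability assay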
Description: SANGER: Inhibition of human SF295 cell growth in a cell viability assay.

EW-18 = assay type: functional, cell-based; conditions: Homo sapiens;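 note: growth inhibition of EW-18 cells, read out by a cell viability assay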
Description: SANGER: Inhibition of human EW-18 cell growth in a cell viability assay.

COR-L88 = assay type: functional, cell-based; conditions: Homo sapiens;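 note: growth inhibition of COR-L88 cells, read out with a cell viability assay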
Description: SANGER: Inhibition of human COR-L88 cell growth in a cell viability assay.

SW 954 = assay type: functional, cell-based, Homo sapiens; conditions: Homo sapiens, SW 954;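 note: growth inhibition of SW954 human cancer cells, read out as cell viability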
Description: SANGER: Inhibition of human SW954 cell growth in a cell viability assay.

EC-GI-10 = assay type: functional, cell-based, Homo sapiens; conditions: Homo sapiens, EC-GI-10
Description: SANGER: Inhibition of human EC-GI-10 cell growth in a cell viability assay.

ES3 = assay type: functional, cell-based, Homo sapiens; conditions: Homo sapiens, ES3;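 note: growth inhibition of ES3 cells, read out with a cell viability assay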
MFE-280 = assay type: functional, cell-based, Homo sapiens; conditions: Homo sapiens, MFE-280;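 note: growth inhibition of MFE-280 cells, determined with a cell viability readout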
Description: SANGER: Inhibition of human MFE-280 cell growth in a cell viability assay.

RPMI-8226 = assay type: functional, cell-based; conditions: Homo sapiens
Description: SANGER: Inhibition of human RPMI-8226 cell growth in a cell viability assay.

ES8 = assay type: functional, cell-based, Homo sapiens; conditions: Homo sapiens, ES8;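 note: growth inhibition of human ES8 cells, read out with a cell viability assay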
Description: SANGER: Inhibition of human ES8 cell growth in a cell viability assay.

CAL-39 = assay type: functional, cell-based, Homo sapiens; conditions: Homo sapiens, CAL-39;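 note: cell viability assay measuring growth inhibition of CAL-39 cells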
Description: SANGER: Inhibition of human CAL-39 cell growth in a cell viability assay.

SW1573 = assay type: functional, cell-based, Homo sapiens; conditions: Homo sapiens, SW1573;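 note: growth inhibition of SW1573 cells, read out with a cell viability assay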
Description: SANGER: Inhibition of human SW1573 cell growth in a cell viability assay.

HOP-62 = assay type: functional, cell-based, Homo sapiens; conditions: Homo sapiens, HOP-62;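 note: cell growth inhibition determined with a viability assay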
Description: SANGER: Inhibition of human HOP-62 cell growth in a cell viability assay.

SK-MEL-30 = assay type: functional, cell-based; conditions: Homo sapiens;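 note: growth inhibition of SK-MEL-30 cells, determined with a cell viability assay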
Description: SANGER: Inhibition of human SK-MEL-30 cell growth in a cell viability assay.

ALL-PO = assay type: functional, cell-based; conditions: Homo sapiens;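 note: growth inhibition of ALL-PO cells, read out by a cell viability assay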
Description: SANGER: Inhibition of human ALL-PO cell growth in a cell viability assay.

Daoy = assay type: functional, cell-based, Homo sapiens; conditions: Homo sapiens, Daoy;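 note: daoy cell growth inhibition, read out as cell viability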
Description: SANGER: Inhibition of human Daoy cell growth in a cell viability assay.

KP-4 = assay type: functional, cell-based, Homo sapiens; conditions: Homo sapiens, KP-4; read-out: IC50;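 note: human KP-4 cells, with growth inhibition read out through a cell viability assay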
Description: SANGER: Inhibition of human KP-4 cell growth in a cell viability assay.

EGI-1 = assay type: functional, cell-based, Homo sapiens; conditions: Homo sapiens, EGI-1;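 note: cell viability readout used to gauge growth inhibition of EGI-1 cells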
Description: SANGER: Inhibition of human EGI-1 cell growth in a cell viability assay.

CP66-MEL = assay type: functional, cell-based, Homo sapiens; conditions: Homo sapiens, CP66-MEL;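 note: growth inhibition of CP66-MEL cells determined in a cell viability assay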
Description: SANGER: Inhibition of human CP66-MEL cell growth in a cell viability assay.

CN(C)C/C=C/C(=O)Nc1cc2c(Nc3ccc(F)c(Cl)c3)ncnc2cc1O[C@H]1CCOC1 [AFATINIB]
IC50 (IST-MES1): > 0.5 µM | IC50 (BEN): > 0.5 µM | IC50 (CAL-51): > 0.5 µM | IC50 (LS-513): > 0.5 µM | IC50 (UMUC3): > 0.5 µM | IC50 (KE-37): > 0.5 µM | IC50 (SW837): > 0.5 µM | IC50 (ESS-1): > 0.5 µM | IC50 (KM-H2): > 0.5 µM | IC50 (SW1417): > 0.5 µM | IC50 (NCI-H441): > 0.5 µM | IC50 (YKG-1): > 0.5 µM | IC50 (HT1197): > 0.5 µM | IC50 (NMC-G1): > 0.5 µM | IC50 (DK-MG): > 0.5 µM | IC50 (TE-8): > 0.5 µM | IC50 (AM-38): > 0.5 µM | IC50 (RKO): > 0.5 µM | IC50 (NB17): > 0.5 µM | IC50 (ES1): > 0.5 µM | IC50 (PSN1): > 0.5 µM | IC50 (MDA-MB-453): > 0.5 µM | IC50 (OVCAR-3): > 0.5 µM | IC50 (SF-268): > 0.5 µM | IC50 (U-87 MG): > 0.5 µM | IC50 (KYSE-140): 0.0833 µM | IC50 (JAR): > 0.5 µM | IC50 (P30-OHK): > 0.5 µM | IC50 (SW982): > 0.5 µM | IC50 (HCE-T): > 0.5 µM | IC50 (MSTO-211H): > 0.5 µM | IC50 (Calu-3): > 0.5 µM | IC50 (U-251): > 0.5 µM | IC50 (NCI-H209): 0.205 µM | IC50 (SF-295): > 0.5 µM | IC50 (EW-18): > 0.5 µM | IC50 (COR-L88): > 0.5 µM | IC50 (SW 954): > 0.5 µM | IC50 (EC-GI-10): 0.0591 µM | IC50 (ES3): > 0.5 µM | IC50 (MFE-280): > 0.5 µM | IC50 (RPMI-8226): > 0.5 µM | IC50 (ES8): > 0.5 µM | IC50 (CAL-39): 0.118 µM | IC50 (SW1573): > 0.5 µM | IC50 (HOP-62): > 0.5 µM | IC50 (SK-MEL-30): > 0.5 µM | IC50 (ALL-PO): > 0.5 µM | IC50 (Daoy): > 0.5 µM | IC50 (KP-4): > 0.5 µM | IC50 (EGI-1): > 0.5 µM | IC50 (CP66-MEL): > 0.5 µM

O=C(NOCC1CC1)c1ccc(F)c(F)c1Nc1ccc(I)cc1Cl [CI-1040]
IC50 (IST-MES1): > 10 µM | IC50 (BEN): > 10 µM | IC50 (CAL-51): > 10 µM | IC50 (LS-513): 1.45 µM | IC50 (UMUC3): 5.18 µM | IC50 (KE-37): > 10 µM | IC50 (SW837): > 10 µM | IC50 (ESS-1): > 10 µM | IC50 (KM-H2): > 10 µM | IC50 (SW1417): 9.57 µM | IC50 (NCI-H441): > 10 µM | IC50 (YKG-1): 9.75 µM | IC50 (HT1197): > 10 µM | IC50 (NMC-G1): > 10 µM | IC50 (DK-MG): 9.21 µM | IC50 (TE-8): 5.69 µM | IC50 (AM-38): > 10 µM | IC50 (RKO): 8.89 µM | IC50 (NB17): > 10 µM | IC50 (ES1): > 10 µM | IC50 (PSN1): 0.962 µM | IC50 (MDA-MB-453): > 10 µM | IC50 (OVCAR-3): > 10 µM | IC50 (SF-268): > 10 µM | IC50 (U-87 MG): > 10 µM | IC50 (KYSE-140): 6.02 µM | IC50 (JAR): > 10 µM | IC50 (P30-OHK): 9.65 µM | IC50 (SW982): > 10 µM | IC50 (HCE-T): 2.83 µM | IC50 (MSTO-211H): 9.96 µM | IC50 (Calu-3): > 10 µM | IC50 (U-251): > 10 µM | IC50 (NCI-H209): > 10 µM | IC50 (SF-295): > 10 µM | IC50 (EW-18): > 10 µM | IC50 (COR-L88): > 10 µM | IC50 (SW 954): 8.97 µM | IC50 (EC-GI-10): > 10 µM | IC50 (ES3): > 10 µM | IC50 (MFE-280): 6.86 µM | IC50 (RPMI-8226): > 10 µM | IC50 (ES8): > 10 µM | IC50 (CAL-39): 2.9 µM | IC50 (SW1573): > 10 µM | IC50 (HOP-62): > 10 µM | IC50 (SK-MEL-30): 7.25 µM | IC50 (ALL-PO): 4.36 µM | IC50 (Daoy): > 10 µM | IC50 (KP-4): > 10 µM | IC50 (EGI-1): 3.61 µM | IC50 (CP66-MEL): 0.488 µM
